Active and inactive are the calls of the source. Unless noted, the calls are words filed in the database; no cut-off is given here.
Tests used:
[1] = target: T1, Opioid receptor (Mus musculus) (UniProt P42866+P32300+P33534); assay: Evaluated in vivo for the antinociceptive and opioid antagonist assays in ICR male mice, Tail-Flick agonist and antagonist tests was performed; IA, Inactive less than 70% of mice affected at 30 mg/kg.; type: functional, organism-based; set-up: dose 30 mg/kg
[2] = target: T1, Opioid receptor (Mus musculus); assay: Hot plate test was carried out for mouse injected sc and the antinociceptive activity was determined from the response;IA, Inactive less than 70% of mice affected at 30 mg/kg.; type: functional, organism-based; set-up: dose 30 mg/kg
[3] = target: T1, Opioid receptor (Mus musculus); assay: Using the PPQ (paraphenylquinone) assay selective opioid receptor agonist activity was established in mice; type: functional
[4] = target: T1, Opioid receptor (Mus musculus); details: Tail
Description: (§5) Narcotic antagonist activity in the mouse tail-flick versus morphine assay

[5] = target: Kappa-type opioid receptor (Mus musculus) (UniProt P33534); assay: (§1) Ki value determined against Opioid receptor kappa 1 using [3H]U69, 593 at the Kd concentration 0.95 nM
[6] = target: Mu-type opioid receptor (Mus musculus) (UniProt P42866); assay: (§2) Ki value determined against Opioid receptor mu 1 using [3H]DAMGO at the Kd concentration 0.57 nM
[7] = target: Sigma non-opioid intracellular receptor 1 (Rattus norvegicus, UniProt Q9R0C9); assay: Ki value determined against Sigma opioid receptor type 1 using [(+)-[3H]pentazocine at the Kd concentration 2 nM.
[8] = target: T1, Opioid receptor (Mus musculus); details: Tail; remark: listed apart in the source
Description: as §5

[9] = target: Kappa-type opioid receptor (Mus musculus, UniProt P33534); assay: as §1
[10] = target: Sigma non-opioid intracellular receptor 1 (Mus musculus, UniProt O55242); assay: Ki value determined against Sigma opioid receptor type 1 using [(+)-[3H]pentazocine at the Kd concentration 2nM
[11] = target: Sigma 2 receptor; assay: Ki value determined against Sigma opioid receptor type 2 using [3H]DTG(5nM) with 1 uM dextrallorphan to mask sigma1 binding; set-up: species or system Mus musculus
[12] = target: T1, Opioid receptor (Mus musculus)
Description: Antinociceptive activity was determined in vivo in all opioid type tests, expressed as AD50 administered subcutaneously

[13] = target: Mu-type opioid receptor (Mus musculus, UniProt P42866); assay: as §2
[14] = target: T1, Opioid receptor (Mus musculus); assay: Evaluated in vivo for the antinociceptive and opioid antagonist assays in ICR male mice, Tail-Flick agonist and antagonist tests was performed; type: functional, organism-based
[15] = target: Delta-type opioid receptor (Mus musculus, UniProt P32300); assay: Ki value determined against Opioid receptor delta 1 using [3H]DPDPE at the Kd concentration 2.1 nM
[16] = target: Sigma 2 receptor; assay: Ki value determined against Sigma opioid receptor type 2 using [3H]DTG (5 nM) with 1 uM dextrallorphan to mask sigma-1 binding; set-up: species or system Mus musculus
[17] = target: T1, Opioid receptor (Mus musculus); assay: Hot plate test was carried out for mouse injected sc and the antinociceptive activity was determined from the response; type: functional, organism-based
[18] = (§3) Tail-flick vs. morphine ED80(morphine sulfate substituted completely) was studied to determine selective in vivo agonist and antagonist activity.; type: functional
[19] = target: T1, Opioid receptor (Mus musculus); assay: as §3; type: functional, organism-based
[20] = target: T1, Opioid receptor (Mus musculus); assay: Using the PPQ (paraphenylquinone) assay selective opioid receptor agonist activity was established in mice;IA, Inactive less than 70% of mice affected at 30 mg/kg.; type: functional, organism-based; set-up: dose 30 mg/kg
[21] = target: Delta-type opioid receptor (Homo sapiens) (UniProt P41143); assay: Antinociceptive activity was determined at Opioid receptor delta 1 using DPDPE; type: functional
[22] = target: Delta-type opioid receptor (Homo sapiens) (UniProt P41143); assay: Antinociceptive activity was determined at Opioid receptor delta 1 versus ED80 of U69,593; type: functional
[23] = target: Delta-type opioid receptor (Homo sapiens) (UniProt P41143); assay: Antinociceptive activity was determined at Opioid receptor delta 1 versus ED80 of morphine; type: functional
[24] = (§4) Tail-flick vs. morphine ED80(morphine sulfate substituted completely) was studied to determine selective in vivo agonist and antagonist activity.;IA, Inactive less than 70% of mice affected at 30 mg/kg.; type: functional, organism-based; set-up: dose 30 mg/kg
[25] = target: T1, Opioid receptor (Mus musculus); assay: Antinociceptive activity was determined in vivo in all opioid type tests; type: organism-based
[26] = tested on: Mus musculus; assay: as §4; type: functional, organism-based; set-up: dose 30 mg/kg

Mu-type opioid receptor (Mus musculus), sequence (P42866 whole entry): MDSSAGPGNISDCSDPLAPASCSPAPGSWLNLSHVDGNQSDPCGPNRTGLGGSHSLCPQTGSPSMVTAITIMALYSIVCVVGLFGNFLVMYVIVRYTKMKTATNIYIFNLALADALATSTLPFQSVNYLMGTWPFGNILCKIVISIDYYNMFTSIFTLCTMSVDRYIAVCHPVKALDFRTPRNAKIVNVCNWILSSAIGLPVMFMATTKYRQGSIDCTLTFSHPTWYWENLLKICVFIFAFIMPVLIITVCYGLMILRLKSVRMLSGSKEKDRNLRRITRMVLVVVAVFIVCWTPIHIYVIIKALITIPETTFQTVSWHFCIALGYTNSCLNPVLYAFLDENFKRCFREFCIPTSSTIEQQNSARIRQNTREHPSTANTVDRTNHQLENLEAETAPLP
Mu-type opioid receptor, sequence (P42866 whole entry): as above
T1 sequence (P32300 whole entry, looked up): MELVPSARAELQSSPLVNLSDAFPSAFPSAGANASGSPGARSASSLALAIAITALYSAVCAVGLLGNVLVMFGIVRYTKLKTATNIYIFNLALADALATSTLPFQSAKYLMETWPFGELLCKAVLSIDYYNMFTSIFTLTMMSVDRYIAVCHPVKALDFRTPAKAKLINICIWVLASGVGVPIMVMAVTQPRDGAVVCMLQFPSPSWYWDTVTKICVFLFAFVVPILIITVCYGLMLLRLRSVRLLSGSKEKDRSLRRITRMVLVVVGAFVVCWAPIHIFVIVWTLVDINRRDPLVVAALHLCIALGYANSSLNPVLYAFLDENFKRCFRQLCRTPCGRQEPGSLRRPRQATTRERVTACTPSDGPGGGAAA
T1 sequence (P33534 whole entry, looked up): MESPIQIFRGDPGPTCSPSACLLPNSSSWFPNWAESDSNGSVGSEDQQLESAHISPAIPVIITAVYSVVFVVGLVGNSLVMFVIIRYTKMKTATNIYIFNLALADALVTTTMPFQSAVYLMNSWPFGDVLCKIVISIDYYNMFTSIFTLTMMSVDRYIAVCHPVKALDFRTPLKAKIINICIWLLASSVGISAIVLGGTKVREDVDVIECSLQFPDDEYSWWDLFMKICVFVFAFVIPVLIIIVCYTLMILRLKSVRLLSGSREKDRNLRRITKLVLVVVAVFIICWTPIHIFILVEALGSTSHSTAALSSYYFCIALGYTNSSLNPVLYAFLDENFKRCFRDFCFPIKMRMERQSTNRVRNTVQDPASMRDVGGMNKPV
T1 sequence (P42866 whole entry, looked up): as the sequence (P42866 whole entry) above
Delta-type opioid receptor, sequence (P32300 whole entry): as the sequence (P32300 whole entry, looked up) above
Sigma non-opioid intracellular receptor 1 (Mus musculus, UniProt O55242), sequence (O55242 whole entry): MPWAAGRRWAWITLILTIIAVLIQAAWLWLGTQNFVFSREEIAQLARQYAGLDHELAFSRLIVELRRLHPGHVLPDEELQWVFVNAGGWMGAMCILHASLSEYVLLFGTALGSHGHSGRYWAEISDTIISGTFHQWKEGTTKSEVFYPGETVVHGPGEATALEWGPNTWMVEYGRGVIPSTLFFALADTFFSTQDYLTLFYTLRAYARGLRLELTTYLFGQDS
Delta-type opioid receptor (Homo sapiens), sequence (P41143 whole entry): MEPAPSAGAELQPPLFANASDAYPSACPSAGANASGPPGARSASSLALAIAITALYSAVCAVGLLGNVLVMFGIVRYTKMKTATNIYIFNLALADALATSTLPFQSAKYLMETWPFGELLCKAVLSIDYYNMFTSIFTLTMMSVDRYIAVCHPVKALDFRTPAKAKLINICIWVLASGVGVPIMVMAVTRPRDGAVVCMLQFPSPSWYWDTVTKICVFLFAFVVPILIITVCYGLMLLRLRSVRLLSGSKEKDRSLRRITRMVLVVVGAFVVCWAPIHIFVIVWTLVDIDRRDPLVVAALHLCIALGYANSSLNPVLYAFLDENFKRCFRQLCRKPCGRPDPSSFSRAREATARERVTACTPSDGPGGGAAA
Sigma non-opioid intracellular receptor 1 (Rattus norvegicus, UniProt Q9R0C9), sequence (Q9R0C9 whole entry): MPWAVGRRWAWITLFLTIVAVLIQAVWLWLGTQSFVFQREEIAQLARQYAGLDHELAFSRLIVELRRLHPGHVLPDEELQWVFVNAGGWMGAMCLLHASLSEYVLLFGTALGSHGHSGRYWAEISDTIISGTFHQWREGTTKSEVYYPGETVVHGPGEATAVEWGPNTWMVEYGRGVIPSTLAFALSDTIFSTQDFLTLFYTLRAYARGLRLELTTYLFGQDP
Kappa-type opioid receptor, sequence (P33534 whole entry): as the sequence (P33534 whole entry, looked up) above
Kappa-type opioid receptor (Mus musculus), sequence (P33534 whole entry): as the sequence (P33534 whole entry, looked up) above

Structure (SMILES)	ED50 [3]	Ki [7]	Ki [9]	Ki [10]	Ki [13]	Ki [15]	Ki [16]	also measured
CC#CCN1CC[C@]2(C)c3cc(O)ccc3CC1[C@@H]2C (stereo in doubt; 12) [listing 1 of 2 here]	0.1 mg/kg	–	–	–	–	–	–	ED50 [1]: inactive; ED50 [2]: inactive
CC#CCN1CC[C@]2(C)c3cc(O)ccc3CC1[C@@H]2C (stereo in doubt; 26) [listing 1 of 2 here]	–	–	–	–	–	–	–	AD50 [4]: 6.7 mg/kg
C=CCN1CC[C@]2(C)c3cc(O)ccc3CC1C2C (stereo partly drawn)	–	300 nM	–	–	–	–	–	inhibition [5]: 31%; inhibition [6]: 28.5%; AD50 [8]: 13.2 mg/kg
CC1C2Cc3ccc(O)cc3[C@@]1(C)CCN2CCCCCCC#N (stereo partly drawn)	–	16 nM	–	–	–	–	–	inhibition [5]: 17.7%; inhibition [6]: 37%
C=CCCN1CC[C@]2(C)c3cc(O)ccc3CC1C2C (stereo partly drawn)	–	15 nM	–	–	–	–	–	inhibition [5]: 35.5%; inhibition [6]: 41%
CC1C2Cc3ccc(O)cc3[C@@]1(C)CCN2CCC#N (stereo partly drawn)	–	250 nM	600 nM	–	–	–	–	inhibition [6]: 11.6%
CC#CCN1CC[C@]2(C)c3cc(O)ccc3CC1[C@@H]2C (stereo in doubt; 26) [listing 2 of 2 here]	–	–	–	160 nM	–	–	–	Ki [11]: 12000 nM
Oc1ccc2c3c1O[C@H]1c4[nH]c5c(c4C[C@@]4(O)[C@@H](C2)N(CC2CC2)CC[C@]314)C[C@@]1(O)[C@H]2Cc3ccc(O)c4c3[C@@]1(CCN2CC1CC1)[C@H]5O4	–	–	–	–	–	–	–	AD50 [12]: 0.3 mg/kg
C=CCCCCN1CC[C@]2(C)c3cc(O)ccc3CC1C2C (stereo partly drawn)	–	1.1 nM	–	–	980 nM	–	–	–
C[C@H]1C2Cc3ccc(O)cc3[C@@]1(C)CCN2CCC#N	0.05 mg/kg	–	0.4 nM	9800 nM	4.2 nM	9.8 nM	51000 nM	ED50 [14]: 0.3 mg/kg; ED50 [17]: 0.1 mg/kg
C#CCCN1CC[C@]2(C)c3cc(O)ccc3CC1C2C (stereo partly drawn)	–	110 nM	–	–	–	–	–	–
CC1C2Cc3ccc(O)cc3[C@@]1(C)CCN2CC#N (stereo partly drawn)	–	11000 nM	–	–	–	–	–	inhibition [5]: 20.4%; inhibition [6]: 18.6%
CC1C2Cc3ccc(O)cc3[C@@]1(C)CCN2CCCC#N (stereo partly drawn)	–	20 nM	240 nM	–	–	–	–	inhibition [6]: 9%
C#CCCCN1CC[C@]2(C)c3cc(O)ccc3CC1C2C (stereo partly drawn)	–	18 nM	–	–	–	–	–	–
C=CCCCN1CC[C@]2(C)c3cc(O)ccc3CC1[C@@H]2C	1.4 mg/kg	–	5.9 nM	50 nM	15 nM	60 nM	180 nM	ED50 [1]: inactive; ED50 [2]: inactive; ED50 [18]: 6 mg/kg
C[C@H]1C2Cc3ccc(O)cc3[C@@]1(C)CCN2CC#N	1.5 mg/kg	–	70 nM	13000 nM	100 nM	590 nM	19000 nM	ED50 [14]: 12 mg/kg; ED50 [17]: 9 mg/kg

Structure (SMILES)	ED50 [3]	Ki [7]	Ki [9]	Ki [10]	Ki [13]	Ki [15]	Ki [16]	also measured
C[C@H]1C2Cc3ccc(O)cc3[C@@]1(C)CCN2CCCCCC#N	–	–	11 nM	640 nM	15 nM	220 nM	380 nM	ED50 [1]: inactive; ED50 [19]: 10 mg/kg; ED50 [2]: inactive; ED50 [20]: inactive
Oc1ccc2c3c1O[C@H]1c4[nH]c5ccccc5c4C[C@@]4(O)[C@@H](C2)N(CC2CC2)CC[C@]314	–	–	–	–	–	–	–	AD50 [12]: 3.1 mg/kg
C#CCCCN1CC[C@]2(C)c3cc(O)ccc3CC1[C@@H]2C	12 mg/kg	–	11 nM	200 nM	18 nM	140 nM	440 nM	ED50 [1]: inactive; AD50 [21]: 0.05 mg/kg; AD50 [22]: 1.2 mg/kg; AD50 [23]: 20 mg/kg; ED50 [2]: inactive; ED50 [18]: 2 mg/kg
C=CCCCCN1CC[C@]2(C)c3cc(O)ccc3CC1[C@@H]2C	0.8 mg/kg	–	5.8 nM	22 nM	10 nM	56 nM	80 nM	ED50 [14]: 0.3 mg/kg; ED50 [17]: 0.6 mg/kg; ED50 [24]: inactive
C=CCN1CC[C@]2(C)c3cc(O)ccc3CC1[C@@H]2C	0.1 mg/kg	–	0.3 nM	11000 nM	0.9 nM	5.5 nM	3200 nM	ED50 [1]: inactive; ED50 [2]: inactive; ED50 [18]: 0.2 mg/kg
C[C@H]1C2Cc3ccc(O)cc3[C@@]1(C)CCN2CCCCC#N	3 mg/kg	–	6.9 nM	490 nM	18 nM	160 nM	2800 nM	ED50 [14]: 15 mg/kg
C[C@H]1C2Cc3ccc(O)cc3[C@@]1(C)CCN2CCCC#N	0.01 mg/kg	–	0.4 nM	1700 nM	5.8 nM	23 nM	8400 nM	ED50 [14]: 0.4 mg/kg; ED50 [17]: 1 mg/kg
CC1C2Cc3ccc(O)cc3[C@@]1(C)CCN2CCCCC#N (stereo partly drawn)	–	36 nM	1300 nM	–	4800 nM	–	–	–
CC1C2Cc3ccc(O)cc3[C@@]1(C)CCN2CCCCCC#N (stereo partly drawn)	–	33 nM	500 nM	–	–	–	–	inhibition [6]: 12.4%
C=CCCCN1CC[C@]2(C)c3cc(O)ccc3CC1C2C (stereo partly drawn)	–	2.1 nM	400 nM	–	–	–	–	inhibition [6]: 20.5%
C=CCCN1CC[C@]2(C)c3cc(O)ccc3CC1[C@@H]2C	0.3 mg/kg	–	1.3 nM	1600 nM	2.1 nM	21 nM	620 nM	ED50 [14]: 0.05 mg/kg; ED50 [19]: 4 mg/kg; ED50 [17]: 0.8 mg/kg
C#CCCN1CC[C@]2(C)c3cc(O)ccc3CC1[C@@H]2C	0.04 mg/kg	–	1.4 nM	5900 nM	4.6 nM	10 nM	2200 nM	ED50 [14]: 0.05 mg/kg; ED50 [17]: 0.1 mg/kg; ED50 [24]: inactive
CC#CCN1CC[C@]2(C)c3cc(O)ccc3CC1[C@@H]2C (stereo in doubt; 12) [listing 2 of 2 here]	–	–	3.9 nM	9800 nM	0.5 nM	60 nM	4400 nM	ED50 [18]: 0.3 mg/kg
COC(=O)/C=C/C(=O)N[C@@H]1CC[C@@]2(O)[C@H]3Cc4ccc(O)c5c4[C@@]2(CCN3CC2CC2)[C@H]1O5	–	–	–	–	–	–	–	AD50 [25]: 0.6 µg brain-1
C[C@H]1C2Cc3ccc(O)cc3[C@@]1(C)CCN2CCCCCCC#N	9 mg/kg	–	38 nM	80 nM	90 nM	350 nM	150 nM	ED50 [1]: inactive; ED50 [2]: inactive; ED50 [26]: inactive
